Experimental data taken from PMC9738062, “Selectively Halogenated Flavonolignans—Preparation and Antibacterial Activity” (International Journal of Molecular Sciences, 2022).

Columns and labels:
[1] = tested on: Vibrio campbellii BAA 1119 (AI-2); experiment: Viability of the quorum-sensing reporter culture (resazurin assay), AI-2 strain; format: cell-based; settings: BAA1119, V. campbellii BAA 1119, resazurin assay, read-out: IC50 (concentration that halved the viability)
From the text: (§1) Commercially available strains of Vibrio campbellii were used to evaluate the ability of flavonoids and their derivatives to inhibit bacterial quorum sensing. V. campbellii uses two types of autoinducing molecules for its communication—N-acyl-homoserine lactones (Autoinducer I, AI-1, strain BAA 1118) and furanosyl borate diester (Autoinducer II, AI-2, strain BAA 1119). AI-1-based communication is mainly used by Gram-negative bacteria, while AI-2-based communication is found in both Gram-negative and Gram-positive bacteria. The mutant strains of V. campbellii BA1118 and BA1119 respond only to AI-1 or AI-2, respectively, and the response to the respective AI concentration is measured as luminescence. The higher the AI concentration, the higher the luminescence signal. The ability to inhibit the communication was expressed as the selectivity index (SI), calculated as the ratio between the concentration that halved the viability (IC50) and the concentration that halved the communication (EC50) of the respective V. campbellii strains. […] The antimicrobial activity of quorum-sensing inhibitors is undesirable because it creates a selection pressure and can lead to the development of resistance.
(§2) The inhibition of bacterial extracellular communication was measured using Vibrio campbellii strains BAA-1118 and BAA-1119. The experiment was performed according to the methods of Szemerédi et al.. Briefly, 5 × 10^5 CFU/mL (colony-forming units per milliliter) were seeded in an Autoinducer Bioassay medium (NaCl 17.5 g/L, MgSO4 12.3 g/L, Casamino acids 2 g/L, 10 mL of 1 M potassium phosphate pH 7.0, 10 mL of 0.1 M L-arginine, and 10 mL of glycerol in 970 mL of deionized water) in a 96-well plate. Immediately, the tested compounds were added at the final concentration of 0.2–200 µM and luminescence was recorded for 16 h by a SpectraMax i3x microplate reader set at 30 °C, an integration time of 10,000 ms, and shaking for 60 s before measurement. […] The selectivity index was calculated as the […]. The EC50 and IC50 were calculated using GraphPad Prism software version 5.00 for Windows with a nonlinear regression curve fit.

[2] = tested on: lipopolysaccharide-stimulated macrophages (RAW 264.7); experiment: Inhibition of nitric oxide production (Griess reagent); format: cell-based, murine; settings: Mus musculus, RAW264.7; LPS 100 ng/mL, 24 h; highest tested concentration 100 µM; read-out: NO Production IC50
Method: The anti-inflammatory activity of the tested flavonolignans was determined as the ability to reduce nitric oxide production by murine macrophages (RAW 264.7) stimulated by bacterial lipopolysaccharides, as previously described. […] For the experiment, 1 × 10^6 cells/mL was seeded into the 96-well plate (100 µL/well). […] After 24 h, the medium was mixed with Griess reagent (0.04 g/mL), prepared freshly in deionized water at the ratio of 1:1. The absorbance was measured after 15 min at 540 nm by the SpectraMax i3x microplate reader. Cell viability was determined by resazurin assay.

[3] = tested on: pooled male rat microsomal liver membranes; experiment: Inhibition of lipid peroxidation induced by tert-butyl hydroperoxide; format: biochemical; settings: male rat microsomes, read-out: ILP IC50
Method: (§3) The antiradical activity was evaluated by the ability to scavenge ABTS and DPPH radicals. Reducing capacity was assessed by the ability to reduce the Folin–Ciocalteu reagent (FCR) and ferric ions (FRAP). The ability to inhibit lipid peroxidation of pooled male rat microsomal liver membranes induced by tert-butyl hydroperoxide was also evaluated and the results were expressed as IC50 values.

[4] = ABTS cation radical scavenging; settings: vitamin C equivalent antioxidant capacity
Method: (§4) To further elucidate how halogenation affects other properties of the flavonoids studied, their 2,2′-azino-bis-(3-ethylbenzothiazoline-6-sulfonic acid) cation (ABTS) and 1,1-diphenyl-2-picrylhydrazyl (DPPH) radical scavenging, the Folin–Ciocalteu reagent (FCR) reducing, the ferric-reducing antioxidant power (FRAP), and the anti-lipoperoxidation activities were evaluated by in vitro methods (Supplementary Information Tables S1 and S2).
as §3

[5] = tested on: multidrug-resistant P. aeruginosa; experiment: Sensitization of antibiotic-resistant bacteria (compound plus breakpoint antibiotic concentration); format: cell-based, Pseudomonas aeruginosa; settings: flavonoid 40 µM, 24 h; for Effect on viability in combination with imipenem: imipenem 4 mg/L; on Effect on viability in combination with imipenem: key: -: no effect (100% viability) was observed up to the highest flavonolignan concentration tested (>40 µM); reversion of resistance: the compound reversed the resistant phenotype to a sensitive one
Method: (§5) Clinically relevant antibiotics were selected for sensitization testing according to the European Committee on Antimicrobial Susceptibility Testing (EUCAST). Neither colistin and imipenem at breakpoint concentrations (according to EUCAST, […] and […]) affected the growth of the multidrug-resistant clinical strain of P. aeruginosa. Similarly, neither chloramphenicol and gentamicin at breakpoint concentrations ([…], respectively) affected the multidrug-resistant clinical strain of S. aureus. Flavonoids and their derivatives (1–40 µM) were used in combination therapy, along with the breakpoint concentration of antibiotics. After co-incubation, the minimum inhibitory concentration of flavonoids inhibiting the visible growth of bacteria was determined (Table 2).
(§6) Clinical isolates of P. aeruginosa and S. aureus were obtained from the General University Hospital in Prague (Prague, Czech Republic). P. aeruginosa was resistant to ciprofloxacin, oxacillin, ticarcillin, colistin, gentamicin, and imipenem. S. aureus was resistant to ciprofloxacin, gentamicin, erythromycin, chloramphenicol, clindamycin, oxacillin, cefotaxime, and vancomycin. Bacteria were cultivated in Mueller–Hinton broth (MH broth, Merck). The susceptibility of the bacteria was evaluated by the minimum inhibitory concentrations (MIC). The MIC of derivatives in the presence of the antibiotic cut-off concentration was determined according to ISO 20776-1: 2020. The antibiotic cut-off concentration was chosen according to the European Committee on Antimicrobial Susceptibility Testing (EUCAST, Clinical breakpoints—bacteria (ver. 11.0), 1 January 2021). The 40 µM concentration of the derivatives was chosen as the highest concentration for the tests. Cell viability was determined by measuring absorbance (A590 nm) after 24 h incubation at 37 °C, 150 rpm.

[6] = tested on: human dermal fibroblasts (HDF); experiment: Cytotoxicity (resazurin assay, 72 h); format: cell-based; settings: Fibroblast
Method: (§7) The cytotoxicity of flavonoids and their halogenated derivatives was determined as their ability to decrease the viability of human dermal fibroblasts (HDF) and doxorubicin-resistant human ovarian carcinomas (HOC/DOX). Both cell lines were cultivated in Dulbecco’s Modified Eagle’s Medium supplemented with fetal bovine serum (FBS, 10% v/v) and 1 × antibiotic antimycotic solution and incubated at 37 °C in the atmosphere of 5% CO2. The experiment was performed according to a previously published method. Briefly, 1 × 10^5 cells/mL were seeded into a 96-well plate (100 µL/well). After 24 h, flavonoids and their derivatives were administered at the concentration range of 31.25–500 µM. After 72 h, the viability was determined by resazurin assay (0.03 mg/mL of resazurin in PBS), where the fluorescence was measured after 2 h of incubation by the SpectraMax i3x microplate reader at a wavelength of 560/590 nm (excitation/emission). The concentration inhibiting half of the population (IC50) was determined using nonlinear regression in GraphPad Prism software. The selectivity index was calculated as the ratio between the IC50 for HDF (control, non-cancerous cells) and the IC50 for HOC/DOX (cancer cells).

[7] = tested on: doxorubicin-resistant human ovarian carcinoma (HOC/DOX); experiment: Cytotoxicity (resazurin assay, 72 h); format: cell-based; settings: for IC50: Homo sapiens, 72 h, resazurin assay; for SI (selectivity index): ratio IC50 for HDF / IC50 for HOC/DOX
Method: as §7

DPPH radical scavenging = settings: 1,1-diphenyl-2-picrylhydrazyl radical scavenging
Method: as §4, §3

[8] = Folin-Ciocalteu reagent reduction; settings: gallic acid equivalents
Method: as §4, §3

[9] = tested on: Vibrio campbellii BAA 1118 (AI-1); experiment: Viability of the quorum-sensing reporter culture (resazurin assay), AI-1 strain; format: cell-based; settings: BAA1118, V. campbellii BAA 1118, resazurin assay, read-out: IC50 (concentration that halved the viability)
From the text: as §1, §2

[10] = tested on: Vibrio campbellii BAA 1119 (AI-2); experiment: microbe, parasite or virus in culture; format: cell-based; settings: for EC50: Vibrio campbellii, BAA1119, 16 h, read-out: EC50 (concentration that halved the communication)
From the text: as §1, §2

[11] = tested on: Vibrio campbellii BAA 1118 (AI-1); experiment: microbe, parasite or virus in culture; format: cell-based; settings: Vibrio campbellii, BAA1118, 16 h, read-out: EC50 (concentration that halved the communication)
From the text: as §1, §2

[12] = tested on: multidrug-resistant S. aureus; experiment: Sensitization of antibiotic-resistant bacteria (compound plus breakpoint antibiotic concentration); format: cell-based, Staphylococcus aureus; settings: flavonoid 40 µM, 24 h; for Effect on viability in combination with chloramphenicol: chloramphenicol 8 mg/L
Method: as §5, §6

[13] = Ferric reducing antioxidant power (FRAP); settings: Fe2+ equivalents
Method: as §4, §3

[14] = tested on: S. aureus biofilm formation; parameters: method as in PMID 28365326; settings: cited from earlier work
breast cancer cell lines = tested on: breast cancer cell lines; parameters: method as in PMID 23962161; settings: cited from earlier work

Compound: COc1cc([C@@H]2Oc3c(O)cc([C@H]4Oc5c(Br)c(O)c(Br)c(O)c5C(=O)[C@@H]4O)cc3[C@H]2CO)ccc1O [compound 15, 6,8-Dibromosilychristin A]
- IC50 [1]: > 200 µM
- IC50 [2]: > 100 µM
- IC50 [3]: 459 µM
- ABTS [CEAC] [4]: 1.28 ± 0.02 CEAC
- Effect on viability in combination with colistin ([5]; colistin 2 mg/L): -
- Effect on viability in combination with imipenem [5]: -
- IC50 [6]: 176 µM
- IC50 [7]: 249 µM
- SI (selectivity index) [7]: 0.71
- IC50 (DPPH radical scavenging): 106 µM
- FCR [GAE] [8]: 2.03 ± 0.05 GAE
- IC50 [9]: > 200 µM
- EC50 [10]: > 200 µM
- EC50 [11]: > 200 µM
- Effect on viability in combination with chloramphenicol [12]: -
- FRAP [Fe2+eq] [13]: 0.34 ± 0.03 Fe2+eq

Compound: O=C(CCc1ccc(O)cc1)c1c(O)cc(O)cc1O [phloretin]
- Concentration inhibiting S. aureus biofilm formation [14]: ≤ 4 µM

Compound: COc1ccc([C@@H]2CC(=O)c3c(O)cc(O)cc3O2)cc1O [hesperetin]
- Concentration inhibiting S. aureus biofilm formation [14]: ≤ 4 µM

Compound: prulonide A
- Concentration showing cytotoxicity (breast cancer cell lines): 1000 nM

Compound: COc1cc(C2Oc3cc(-c4oc5c(Br)c(O)c(Br)c(O)c5c(=O)c4O)ccc3OC2CO)ccc1O (stereo not drawn) [compound 17, 6,8-dibromo-2,3-dehydrosilybin AB]
- IC50 [1]: 127 ± 7.4 µM
- IC50 [2]: 44.4 ± 2.4 µM
- IC50 [3]: 56.7 ± 1.6 µM
- ABTS [CEAC] [4]: 1.49 ± 0.04 CEAC
- Effect on viability in combination with imipenem [5]: -
- IC50 [6]: 41.7 ± 1 µM
- IC50 [7]: 91.3 ± 1.6 µM
- SI (selectivity index) [7]: 0.46
- IC50 (DPPH radical scavenging): 11.7 µM
- FCR [GAE] [8]: 1.50 ± 0.02 GAE
- IC50 [9]: > 200 µM
- EC50 [10]: 4.1 ± 0.2 µM
- SI (selectivity index) ([10]; ratio IC50 (viability) / EC50 (communication), BAA 1119): 31.2 ± 3.5
- EC50 [11]: 55.5 ± 1.6 µM
- Effect on viability in combination with chloramphenicol [12]: -
- Effect on viability in combination with gentamicin ([12]; gentamicin 1 mg/L): -
- FRAP [Fe2+eq] [13]: 0.54 ± 0.04 Fe2+eq

Compound: O=c1c(O)c(-c2cc(O)c(O)c(O)c2)oc2cc(O)cc(O)c12 [myricetin]
- Concentration inhibiting S. aureus biofilm formation [14]: ≤ 4 µM

Compound: COc1cc([C@@H]2Oc3c(O)cc([C@H]4Oc5c(I)c(O)c(I)c(O)c5C(=O)[C@@H]4O)cc3[C@H]2CO)ccc1O [compound 27, 6,8-diiodosilychristin A]
- IC50 [3]: 97.2 ± 3.5 µM
- ABTS [CEAC] [4]: 1.13 ± 0.01 CEAC
- IC50 (DPPH radical scavenging): 168 µM
- FCR [GAE] [8]: 1.79 ± 0.05 GAE
- FRAP [Fe2+eq] [13]: 0.21 ± 0.01 Fe2+eq
